Experimental data: US5968912A, “Methods for immunosuppressing” (Immune Modulation, Inc., priority 1997, dated 1999)
“Also recorded” adds a separate entry of the source.

Columns and labels:
[1] = system: mononuclear leukocytes (Two-way MLR); assay: Two-way mixed leukocyte reaction (MLR), 3H-thymidine incorporation; format: cell-based, human
[2] = system: H-2K anti-H-2d cytotoxic T-cells; assay: Generation of H-2K anti-H-2d cytotoxic T-cell activity in mice, ex vivo 51Cr-release assay; set-up: species or system mouse (C3H/J; DBA/2 targets)
Procedure: Generation of H-2 Restricted Cytolytic T-lymphocytes in Mice
A mouse correlate of the human "one-way MLR" was developed in inbred strains of mice. The cells of one mouse strain (H-2^d) were injected i.v. into a different mouse strain (H-2^k). Mice were obtained from Charles River Laboratories, Hollister, Calif.). Because of the histoincompatibility between the two strains, the H-2^k mice develop cytotoxic T-cells capable of killing the cells of the H-2^d strain of mice (Abbas, A. K., id), which is the type of reaction observed in humans or animals receiving tissue grafts from histoincompatible donors. The H-2^k mice sensitized against H-2^d cells/allo-antigens were treated with either HE-33 (100 mg/kg i.v. or 400 mg/kg orally) every three days for 9 days or were not treated with drug.
Ex Vivo Assay. On the tenth day, all mice were sacrificed, and spleens were removed to test for splenic T-cell-mediated cytotoxicity against CON-A stimulated DBA/2 spleen cells expressing the H-2^d antigens. CON-A was obtained from Sigma Chem. Co., St. Louis, Mo. Spleen cell suspensions were prepared in complete culture medium and adjusted to desired concentrations. The CON-A blast cells were radiolabeled with ^51 Cr and mixed with the respective splenic effector cells at varying effector:target cell ratios in 96-well microtiter plates. The mixtures were cultured for 4 hr. at 37° C. in a 5% CO2 incubator. Lysis of target cells were assessed essentially as described previously for a ^51 Cr-release assay (Ojo-Amaize, E. A., et al., id) and results expressed as % specific lysis (FIG. 1).
*C3 H/J mouse was injected with 2 × 10^7 DBA/2 spleen cell
for 9 days. HE33 was administered either orally (400 mg/kg) or
intravenously (100 mg/kg) on day 0 and every three days. ConA stimulated
DBA/2 spleen cells were used as target cells.

[3] = system: GVHD in (B6 x C3H)F1 mice; assay: GVHD in (B6 x C3H)F1 recipients of cells from pretreated C57BL/6 donor mice; format: in vivo, mouse
Procedure: Generation of F1 Recipient Mice: Male mice of inbred strains, C57BL/6 (H-2^b haplotype) were mated with female mice of inbred strains, C3 H/j (H-2^k haplotype). The resulting hybrids (C57BL/6×C3 H/j)F1 were used as recipients of the B6 spleen cells.
Elimination of endogenous and inducible NK cell activity from the cell donor mice (C57BL/6)
Six- to ten-week old C57BL/6 mice were treated for 24 hours orally or intravenously with HE-33. Orally-treated mice received 400 mg/kg twice a day (Bid), and intravenously treated mice received a single 100 mg/kg i.v.
Irradiation of Recipient (B6 ×C3 H)F1 Mice: Ten- to twelve- week old (B6 ×C3 H)F1 mice were sublethally irradiated with a Cobalt-60 gamma source at 450 rads in a single dose.
Induction of GVHD: GVHD was induced in irradiated (B6 ×C3 H)F1 mice by the intravenous injection of 5×10^7 donor B6 (H-2^b) spleen and lymph node cells.

IL-2 = IL-2 production in PHA-stimulated PBMC cultures; format: cell-based, human; set-up: % Inhibition of IL-2 production: concentration or dose not given beside the values
Procedure: (§1) Production of autocrine growth factors (IL-2, IL-4, IL-10 and Interferon-gamma) in PHA-stimulated human PBMC cultures
(§2) Culture supernatants were collected at the times indicated and frozen at -20° C. At the end of 96 hr., all supernatants were assayed by enzyme immunoassay for the presence of the cytokines: interleukin-2, -4, -10 and interferon (IFN)-gamma. Results were expressed in pg/mL concentration of cytokine and % inhibition of cytokine production.

Interferon-gamma = Interferon-gamma production in PHA-stimulated PBMC cultures; format: cell-based, human; set-up: % Inhibition of IFN-γ production: concentration or dose not given beside the values
Procedure: as §1, §2

[4] = system: tetanus toxoid-specific T-cell proliferation (PBMC); assay: cells; format: cell-based, human
[5] = system: Protein Kinase-C-Mediated T-cell Proliferation (PBMC); assay: PK-C-mediated T-cell proliferation (PMA + A23187); format: cell-based, human; conditions: PMA 1.25 ng/mL + A23187 0.25 μM
Procedure: Determination of the effect of HE-33 on PK-C-mediated signaling pathway
PBMC of a healthy volunteer were cultured in 96-well microtiter plates at 2×10^5 cells/well. […] Forskolin is an agent well known to increase intacellular cAMP levels by activating adenylate cyclase. Cultures were incubated for 3 days at 37° C. in a 5% CO2 incubator. Proliferative response was determined by incorporation of ^3 H-thymidine.. The results were expressed in CPM and % inhibition of proliferation (Table 7).

Compound: CCCN(CCC)c1ncnc2c1ncn2[C@@H]1O[C@@H]2COP(=O)(O)O[C@H]2[C@H]1O [HE-33, N^6,N^6 -di-n-Propyl-c-AMP]
- IC50 ([1]; Homo sapiens, Leukocyte, read-out: IC50, drug concentration capable of inducing a 50% inhibition): 100 to 1000 nM
- inhibition at 0.01 µM ([1]; Homo sapiens, Leukocyte, 0.01 μM): 28%
- inhibition at 0.1 µM ([1]; Homo sapiens, Leukocyte, 0.1 μM): 40%
- inhibition at 1 µM ([1]; Homo sapiens, Leukocyte, 1 μM): 81%
- inhibition at 10 µM ([1]; Homo sapiens, Leukocyte, 10 μM): 96%
- inhibition at 100 µM ([1]; Homo sapiens, Leukocyte, 100 μM): 99.2%
- Inhibitory capacity on two-way MLR, in words ([1]; two-way MLR): comparable to that of cyclosporin (CsA)
- L.U. ([2]; I.V. injected 100 mg/kg): 1 L.U.
- % Inhibition of cytotoxic T-cell activity ([2]; I.V. injected 100 mg/kg every three days): 92%
- % Lysis ([2]; I.V. injected 100 mg/kg, ratio 3.12:1): 0%
- % Lysis ([2]; I.V. injected 100 mg/kg, ratio 6.25:1): 0%
- % Lysis ([2]; I.V. injected 100 mg/kg, ratio 12.5:1): 0%
- % Lysis ([2]; I.V. injected 100 mg/kg, ratio 25:1): 1%
- % Inhibition of cytotoxic T-cell activity ([2]; oral fed 400 mg/kg): 32%
- L.U. ([2]; oral fed 400 mg/kg): 9 L.U.
- % Lysis ([2]; oral fed 400 mg/kg, ratio 3.12:1): 1%
- % Lysis ([2]; oral fed 400 mg/kg, ratio 6.25:1): 2%
- % Lysis ([2]; oral fed 400 mg/kg, ratio 12.5:1): 2%
- % Lysis ([2]; oral fed 400 mg/kg, ratio 25:1): 5%
- Mean survival time (MST) of the mice that died ([3]; FIG. 2): 46 days
- Recipients that had died ([3]; by 55 days post cell transfer, FIG. 2): 30%
- Recipients that had died ([3]; by day 30 post cell transfer, FIG. 2, P<0.0000001): none
- Recipients that had died ([3]; day 33 post cell transfer, FIG. 3): 50%
- Prevention of GVHD by route of administration, in words ([3]; oral versus intravenous): the oral route was better than the i.v. route; also recorded: Both the oral and intravenous routes of administration of HE-33 were effective in preventing GVHD
- % Inhibition of IL-2 production (IL-2; 24 hours): 0%
- IL-2 production (IL-2; 24 hours): 418 pg/mL
- % Inhibition of IL-2 production (IL-2; 48 hours): 76%
- IL-2 production (IL-2; 48 hours): 148 pg/mL
- % Inhibition of IL-2 production (IL-2; 72 hours): 70%
- IL-2 production (IL-2; 72 hours): 51 pg/mL
- % Inhibition of IL-2 production (IL-2; 96 hours): 0%
- IL-2 production (IL-2; 96 hours): 48 pg/mL
- % Inhibition of IFN-γ production (Interferon-gamma; 24 hours): 0%
- IFN-γ production (Interferon-gamma; 24 hours): 980 pg/mL
- % Inhibition of IFN-γ production (Interferon-gamma; 48 hours): 9%
- IFN-γ production (Interferon-gamma; 48 hours): 6146 pg/mL
- % Inhibition of IFN-γ production (Interferon-gamma; 72 hours): 0%
- IFN-γ production (Interferon-gamma; 72 hours): 5390 pg/mL
- % Inhibition of IFN-γ production (Interferon-gamma; 96 hours): 0%
- IFN-γ production (Interferon-gamma; 96 hours): 6105 pg/mL
- Proliferation ([4]; 1 μg/mL): 358 CPM
- Proliferation ([4]; 10 μg/mL): 94 CPM
- inhibition at 1 µg/mL ([4]; Homo sapiens, T-cell, 1 μg/mL): 65%
- Proliferation ([5]; 100 μM): 31 CPM
- inhibition at 100 µM ([5]; Homo sapiens, T-cell): 97%
